Biological target: T1, 3-hydroxy-3-methylglutaryl-coenzyme A reductase (Rattus norvegicus, UniProt P51639)
T1 sequence (P51639 whole entry): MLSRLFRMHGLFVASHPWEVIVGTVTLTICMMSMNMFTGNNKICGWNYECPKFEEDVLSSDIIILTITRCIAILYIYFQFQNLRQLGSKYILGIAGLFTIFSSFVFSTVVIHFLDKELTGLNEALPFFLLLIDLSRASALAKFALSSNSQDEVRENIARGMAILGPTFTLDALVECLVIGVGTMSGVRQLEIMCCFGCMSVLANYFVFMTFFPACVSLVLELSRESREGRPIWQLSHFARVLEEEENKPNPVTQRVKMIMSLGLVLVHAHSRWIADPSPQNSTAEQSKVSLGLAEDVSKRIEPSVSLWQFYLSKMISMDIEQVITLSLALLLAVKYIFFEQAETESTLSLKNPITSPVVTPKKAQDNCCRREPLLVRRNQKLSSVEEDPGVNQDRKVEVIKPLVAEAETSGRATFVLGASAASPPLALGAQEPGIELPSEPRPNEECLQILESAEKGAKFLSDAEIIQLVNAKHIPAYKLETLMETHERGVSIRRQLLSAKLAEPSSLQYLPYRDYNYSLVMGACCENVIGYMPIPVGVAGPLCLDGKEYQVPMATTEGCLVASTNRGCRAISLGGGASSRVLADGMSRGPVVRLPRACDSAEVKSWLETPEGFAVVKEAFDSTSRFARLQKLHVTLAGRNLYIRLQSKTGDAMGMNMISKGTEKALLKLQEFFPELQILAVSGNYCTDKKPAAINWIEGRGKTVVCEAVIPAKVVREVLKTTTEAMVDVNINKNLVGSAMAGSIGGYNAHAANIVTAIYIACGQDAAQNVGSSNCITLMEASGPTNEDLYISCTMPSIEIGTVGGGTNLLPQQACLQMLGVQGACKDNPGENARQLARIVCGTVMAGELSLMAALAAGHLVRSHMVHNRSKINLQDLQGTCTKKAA
Test: Ability of compound to inhibit the activity of 3-hydroxy-3-methylglutarylcoenzyme A(HMGR) reductase in rat liver microsomes
Parameters: species or system Microsome

| Structure (SMILES) | IC50 [µM] |
| --- | --- |
| O=C(O)C[C@H](O)CC(=O)CCc1ccccc1 | 1300 |
| CC[C@H](C)C(=O)O[C@H]1CCC=C2C=C[C@H](C)[C@H](CCC(=O)C[C@@H](O)CC(=O)O)C21 (stereo not given in full) | 0.032 |
| CC[C@H](C)C(=O)O[C@H]1C[C@@H](C)C[C@@H]2C=C[C@H](C)[C@H](CCC(O)C[C@@H](O)CC(=O)O)C12 (stereo not given in full) | 0.0016 |
| CC[C@H](C)C(=O)O[C@H]1CCC=C2C=C[C@H](C)[C@H](CCC(O)C[C@@H](O)CC(=O)O)C21 (stereo not given in full) | 0.013 |
| O=C(O)CC(O)CC(O)CCc1ccccc1 (stereo not given) | 600 |
